What all share (format): cell-based
For assay [1], the system named is BxPC-3 pancreatic cancer cell line. Nature of the assay: SRB analysis 1. To be noted: Homo sapiens, % compared to the control group, read-out: degree of growth inhibition. As to the method:
(§1) Pancreatic cancer (MIA PaCa2, Capan1, Capan2, BxPC-3, SNU-213 or SNU-324) cell lines (100 μl) were seeded into 96-well microtiter plates at densities ranging from 7,500 to 10,000 cells/well depending on the doubling time of each cell line. After adding Trimetazidine (KN713) 1 mM, omeprazole (KN510) 100 or 200 μM, trimetazidine 1 mM+omeprazole 100 μM, trimetazidine 1 mM+omeprazole 200 μM, respectively, to each well by 100 μl each, and plate was incubated in a CO2 incubator, and cold TCA was added to terminate the assay. 50 μl of cold 50% (w/v) TCA (final concentration: 10% TCA) was gently added to fix the cells and incubated at 4° C. for 60 minutes. The supernatant was discarded and the plate was washed 5 times with tap water and then air dried. A solution of 0.4% (w/v) Sulforhodamine B (100 μl) in 1% acetic acid was added to each well, and the plate was left at room temperature for 10 minutes. After staining, the plates were air dried after washing 5 times with 1% acetic acid to remove unbound dye. The bound dye was then solubilized with 10 mM trizma base and the absorbance was recorded at 515 nm using an automated plate reader.

Assay [2] concerns Capan1 pancreatic cancer cell line. Nature of the assay: SRB analysis 1. Particulars: Homo sapiens, % compared to the control group, read-out: degree of growth inhibition. The protocol:
as §1

Assay [3] relates to Capan2 pancreatic cancer cell line. Nature of the assay: SRB analysis 1. To be noted: Homo sapiens, % compared to the control group, read-out: degree of growth inhibition. The protocol: as §1
For assay [4], the system named is MIA PaCa2 pancreatic cancer cell line. Nature of the assay: SRB analysis 1. To be noted: Homo sapiens, % compared to the control group, read-out: degree of growth inhibition. As to the method: as §1
Assay [5] deals with SNU-213 pancreatic cancer cell line. Nature of the assay: SRB analysis 1. To be noted: % compared to the control group, read-out: degree of growth inhibition. The protocol:
as §1

In assay [6] the test system is SNU-324 pancreatic cancer cell line. Nature of the assay: SRB analysis 1. Particulars: % compared to the control group, read-out: degree of growth inhibition. As to the method:
as §1

In assay [7] the test system is Panc-1 pancreatic cancer cells. Nature of the assay: SRB analysis 2. Particulars: 48 hours.
Assay [8] deals with SW1990 pancreatic cancer cells. Nature of the assay: SRB analysis 2. To be noted: 48 hours.
Assay [9] has as its system ACHN renal cancer cell line. Nature of the assay: SRB analysis 3. Particulars: 48 hours. The gist of the method:
(§2)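 Cells seeded at 5,000-40,000/well by doubling time; after 24 h, drug added for 48 h at 37 °C, including triple combination of omeprazole, trimetazidine and another anticancer drug. TCA-fixed, SRB-stained, absorbance at 515 nm; reported as GI50, TGI or LC50, n=3.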

The subject of assay [10] is AGS gastric cancer cell line. Nature of the assay: SRB analysis 3. To be noted: 48 hours. The gist of the method:
as §2

The test system of assay [11] is COLO-205 colon cancer cell line. Nature of the assay: SRB analysis 3. Particulars: 48 hours. Put shortly:
as §2

Assay [12] concerns DU145 prostate cancer cell line. Nature of the assay: SRB analysis 3. To be noted: 48 hours. The gist of the method: as §2

By inhibition is commonly meant the drop in the measured response relative to a control, in per cent.

With `COc1ccc2[nH]c([S+]([O-])Cc3ncc(C)c(OC)c3C)nc2c1` (stereo not drawn) [KN510, omeprazole], the inhibition at 100 µM is 79.5% in [1] (BX-PC3, KN510 100 μM); 1.3% in assay [3] (Capan-2, KN510 100 μM); 70.8% in assay [4] (MIA PaCa-2, KN510 100 μM); 81% in assay [5] (KN510 100 μM); 68.2% in [6] (KN510 100 μM). In addition, the inhibition at 200 µM in assay [1] (BX-PC3, KN510 200 μM) amounted to 96.9%; in assay [3] (Capan-2, KN510 200 μM), 49.5%; in assay [4] (MIA PaCa-2, KN510 200 μM) it was 92.8%; in assay [5] (KN510 200 μM), 89.6%; in assay [6] (KN510 200 μM), 89.8%. In [2] (CAPAN-1, KN510 100 μM), the cell growth (% of control) at 100 µM came to 97.6%. For the same compound, in [2] (CAPAN-1, KN510 200 μM), the cell growth (% of control) at 200 µM came out at 111%. Also, the “degree of cell growth based on the control (100%)” value came out at 63.06% in assay [7] (KN510 100 μM), 19.45% in [7] (KN510 200 μM), 90.16% in assay [8] (KN510 100 μM) and 63.83% in [8] (KN510 200 μM). Moreover, the “cell growth (Control = 100)” value in assay [9] (KN510 100 μM) is reported as 61.17; in assay [10] (KN510 100 μM), 65.05; in assay [11] (KN510 100 μM), 78.03; in assay [12] (KN510 100 μM), 76.71.

`COc1ccc(CN2CCNCC2)c(OC)c1OC` [KN713, trimetazidine]: the inhibition at 1000 µM in [1] (BX-PC3, KN713 1 mM) is 12.3%; in assay [3] (Capan-2, KN713 1 mM), -22.2%; in [4] (MIA PaCa-2, KN713 1 mM) it was 30.2%; in assay [5] (KN713 1 mM), 48.1%; in assay [6] (KN713 1 mM), -3.16%. Further, in assay [2] (CAPAN-1, KN713 1 mM), the cell growth (% of control) at 1000 µM is 31.2%. Also, the “cell growth (Control = 100)” value in [9] (KN713 2.5 mM) worked out at 65.67; in assay [10] (KN713 2.5 mM) it was 60.34; in assay [11] (KN713 2.5 mM) it was 31.62; in [12] (KN713 2.5 mM), 55.68.

Source of the values: patent US12728119B2, “Pharmaceutical composition for preventing or treating cancer comprising 3-ketoacyl CoA thiolase inhibitor and carnitine acylcarnitine carrier inhibitor” (NATIONAL CANCER CENTER, priority 2020, dated 2026).
